What all share (type): cell-based
The subject of test [1] is SKOV3 cells. Description: Wound-healing (scratch) assay, SKOV3. On the procedure:
(§1) For the scratch assay, confluent 6-well plates were scratched with a pipette tip, washed and treated with compounds or vehicle. The plate was photographed at set time points and the area of wound closure was quantified with ImageJ. Cell migration was assessed by using Transwell inserts (8 μm pore size, Merck-Millipore, Watford, UK). Briefly, 15,000 cells were seeded in the upper chambers of trans-wells in serum-free media containing compounds or control, while media containing 10% serum was added to the lower chamber. After 18 hours, cells invaded through the transwells were fixed with warm 4% PFA for 20 min at room temperature and stained with crystal violet for 3 min. The membranes were removed, mounted on cover slides and cells were counted using a microscope at 40× magnification.

Test [2] deals with OVCAR5 cells. Nature of the test: Solid phase adhesion assay on fibronectin, OVCAR5. As to the method:
(§2) Briefly, wells were coated with 10 μg/ml fibronectin diluted in PBS for one hour. 30,000 cells pretreated with compounds for 6 hours were seeded and allowed to attach for 30 minutes. After washing with PBS to remove unattached cells, cells adhering to coated wells were quantified by using the CCK-8 assay (ApexBio), following the manufacturer's protocol. Relative absorbance measured at 496 nm was used to estimate the relative number of the cell attached to fibronectin coated wells.

The target in test [3] is T1, TG2 (Homo sapiens, UniProt P21980).
T1 construct: tested in multiple ovarian cancer cell lines that express TG2 for their ability to degrade the protein; endogenous in cells; host or cells: OVCAR5 and SKOV3 ovarian cancer cells
T1 sequence (P21980 1-687): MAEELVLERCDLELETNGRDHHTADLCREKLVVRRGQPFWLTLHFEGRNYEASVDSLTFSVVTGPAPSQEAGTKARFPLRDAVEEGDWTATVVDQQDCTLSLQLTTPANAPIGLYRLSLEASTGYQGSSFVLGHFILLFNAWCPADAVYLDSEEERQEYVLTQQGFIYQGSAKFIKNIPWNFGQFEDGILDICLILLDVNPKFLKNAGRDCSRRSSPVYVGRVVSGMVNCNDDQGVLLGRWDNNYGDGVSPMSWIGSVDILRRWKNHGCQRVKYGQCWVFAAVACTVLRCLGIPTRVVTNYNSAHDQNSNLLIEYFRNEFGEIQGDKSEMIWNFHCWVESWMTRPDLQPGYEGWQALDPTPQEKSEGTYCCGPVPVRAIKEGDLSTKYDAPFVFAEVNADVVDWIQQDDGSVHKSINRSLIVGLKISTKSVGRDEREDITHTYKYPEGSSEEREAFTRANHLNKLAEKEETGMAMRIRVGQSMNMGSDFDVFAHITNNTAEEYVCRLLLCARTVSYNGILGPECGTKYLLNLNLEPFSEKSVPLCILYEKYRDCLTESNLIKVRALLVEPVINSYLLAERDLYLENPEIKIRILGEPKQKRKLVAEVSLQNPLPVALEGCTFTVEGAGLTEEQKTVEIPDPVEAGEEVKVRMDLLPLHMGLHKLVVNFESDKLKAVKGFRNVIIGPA
Nature of the test: Western blot analysis of TG2 degradation in SKOV3 cells. The conditions noted are these: for TG2 degradation (western blot): 6 hours, up to 10 μM; for TG2 degradation with proteasome inhibitor MG132 co-treatment: 10 μM compound 6 hrs, MG132 20 μM 8 hrs. On the procedure:
(§3) SKOV3 cells were purchased from ATCC. OVCAR5 cells were obtained from Dr. Marcus Peter at Northwestern University. Cells were maintained at 37° C. in an environment of 5% CO2 and 100% humidity. The media used for culturing the cell lines are included in Table 1. Cells lines used in all experiments were at low-passages and were confirmed to be pathogen and mycoplasma-free by Charles River Animal Diagnostic Services. Cell lines were authenticated by IDEXX BioAnalytics with short tandem repeat (STR) profiling. MG132 was obtained from SelleckChem. Anti-TG2 antibody (cat #: MAB3839-I-100UG) was purchased from Millipore Sigma, GAPDH antibody (cat #: H86504M) was purchased from Meridian Bioscience.
(§4) Briefly, SKOV3 and OVCAR5 cells were seeded on 6 cm dishes and treated with different concentrations of compounds at different time points. Proteins were extracted using RIPA buffer and quantified using the Bradford assay. After gel electrophoresis and transfer, PDVF membranes were blocked with TBS-Tween 5% BSA for one hour and incubated with primary antibodies 20 (1:1000 dilution, overnight at 4° C.). After incubation with the secondary antibody (anti rabbit/mouse-horseradish peroxidase 1:1000 dilution) for 1 h at room temperature, signal was developed using SuperSignal West Pico PLUS Chemiluminescent Substrate (Thermo Fisher Scientific cat #: 34580) and captured with an ImageQuant LAS 4000 machine. To detect additional proteins, membranes were treated with Restore Western Blot Stripping Buffer (Thermo Fisher Scientific cat #: 21059), blocked, and then incubated with primary antibody.
In general terms: A western blot detects proteins with antibodies after separation by electrophoresis.

Test [4] deals with SKOV3 cells. Description: Solid phase adhesion assay on fibronectin, SKOV3. On the procedure: as §2
The target of test [5] is T1, TG2. Nature of the test: Western blot analysis of TG2 degradation in OVCAR5 cells. As to conditions: 6 hours, 0.1-10 μM. As to the method:
as §3, §4

The test system of test [6] is OVCAR5 cells. Description: Wound-healing (scratch) assay, OVCAR5. As to the method: as §1

Each structure is given as a SMILES string. “Also recorded” adds a separate entry of the source.

For `Cc1cc(N(C)CCOCCC(=O)N[C@H](C(=O)N2C[C@@H](O)C[C@H]2C(=O)NCc2ccc(-c3scnc3C)cc2)C(C)(C)C)nc(Nc2ccc(NC(=O)Cc3ccccc3)cc2)n1` [Compound 12, (2S,4S)-1-((S)-3,3-dimethyl-2-(3-(2-(methyl(6-methyl-2-((4-(2-phenylacetamido)phenyl)amino)pyrimidin-4-yl)amino)ethoxy)propanamido)butanoyl)-4-hydroxy-N-(4-(4-methylthiazol-5-yl)benzyl)pyrrolidine-2-carboxamide], the “cell migration, wound-healing assay” value in test [1] and in test [6] was “did not affect cell migration” in each case. The “adhesion of cells to fibronectin” value in test [2] and in test [4] was “did not affect” in each case. Further, the “TG2 degradation (western blot)” value in test [3] and in test [5] was “did not induce TG2 degradation; also recorded: No degradation of TG2 was observed” each time.
As to `Cc1cc(N(C)CCOCCOCCOCCOCCOCCC(=O)N[C@H](C(=O)N2C[C@@H](O)C[C@H]2C(=O)NCc2ccc(-c3scnc3C)cc2)C(C)(C)C)nc(Nc2ccc(NC(=O)Cc3ccccc3)cc2)n1` [Compound 13, (2S,4S)-1-((S)-22-(tert-butyl)-2-(6-methyl-2-((4-(2-phenylacetamido)phenyl)amino)pyrimidin-4-yl)-20-oxo-5,8,11,14,17-pentaoxa-2,21-diazatricosan-23-oyl)-4-hydroxy-N-(4-(4-methylthiazol-5-yl)benzyl)pyrrolidine-2-carboxamide], the “cell migration, wound-healing assay” value in test [1] and in test [6] was “did not affect cell migration” throughout. In addition, the “adhesion of cells to fibronectin” value in test [2] and in test [4] was “did not affect” throughout. Also, the “TG2 degradation (western blot)” value in test [3] and in test [5] was “did not induce TG2 degradation; also recorded: No degradation of TG2 was observed” in each case.
With `Cc1cc(N(C)CCOCCOCCOCCSC(C)(C)[C@H](NC(=O)C2(F)CC2)C(=O)N2C[C@H](O)C[C@H]2C(=O)NCc2ccc(-c3scnc3C)cc2)nc(Nc2ccc(NC(=O)Cc3ccccc3)cc2)n1` [Compound P404], the “cell migration, wound-healing assay” value in test [1] is reported as “reduce the migration”. Moreover, in test [3], the “TG2 degradation with proteasome inhibitor MG132 co-treatment” value is recorded as “blocked” and the “TG2 degradation (western blot)” value is listed as “degrade TG2”. The “adhesion of cells to fibronectin” value in test [4] is “reduce the migration and adhesion capability”.
On to `Cc1cc(N(C)CCOCCSC(C)(C)[C@H](NC(=O)C2(F)CC2)C(=O)N2C[C@H](O)C[C@H]2C(=O)NCc2ccc(-c3scnc3C)cc2)nc(Nc2ccc(NC(=O)Cc3ccccc3)cc2)n1` [Compound P405], for which the “cell migration, wound-healing assay” value in test [1] was “reduce the migration”. Moreover, in test [3], the “TG2 degradation with proteasome inhibitor MG132 co-treatment” value is “blocked” and the “TG2 degradation (western blot)” value is on record as “degrade TG2”. The “adhesion of cells to fibronectin” value in test [4] was “reduce the migration and adhesion capability”.

Source of the values: patent US20240287033A1, “DEGRADERS OF TISSUE TRANSGLUTAMINASE 2 (TG2)” (Northwestern University, priority 2023, published 2024).
